Columns and labels:
Test in all cases: relative viability (nuclei count vs DMSO), 5 days (fraction); higher = more cells survive
Obatoclax + Crizotinib = compound: COC1=CC(c2cc3ccccc3[nH]2)=N/C1=C\c1[nH]c(C)cc1C [Obatoclax] + C[C@@H](Oc1cc(-c2cnn(C3CCNCC3)c2)cnc1N)c1c(Cl)ccc(F)c1Cl [Crizotinib] (partner 1 µM)
Method in brief: (§1)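 The day after seeding in 1536-well plates, lung cancer cell lines were treated by pin tool with a single drug, or with a fixed anchor-drug dose together with five library-drug doses (not always all listed) in √10 steps. After 5 days, a combined fix-and-stain solution (final 0.05% Triton X-100, 1% formaldehyde, 1 ug/ml Hoechst) was added. Nuclei counted on 4× images gave relative viability as treated counts over vehicle counts, reported as the median of duplicate plates.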

[1] = compound: CC1=CC(=NN1)NC2=CC(=NC(=N2)/C=C/C3=CC=CC=C3)N4CCN(CC4)C + Cc1cc(Nc2cc(N3CCN(C)CC3)nc(Sc3ccc(NC(=O)C4CC4)cc3)n2)n[nH]1 [Tozasertib] (partner 0.1 µM)
Method in brief: as §1

[2] = compound: CC1=CC(=NN1)NC2=CC(=NC(=N2)/C=C/C3=CC=CC=C3)N4CCN(CC4)C + COc1cccc2cc(-c3nc([C@H]4CC[C@H](C(=O)O)CC4)n4ncnc(N)c34)[nH]c12 [OSI-027] (partner 0.5 µM)
Method in brief: as §1

Bortezomib + Pemetrexed = compound: CC(C)C[C@H](NC(=O)[C@H](Cc1ccccc1)NC(=O)c1cnccn1)B(O)O [Bortezomib] + Nc1nc2[nH]cc(CCc3ccc(C(=O)N[C@@H](CCC(=O)O)C(=O)O)cc3)c2c(=O)[nH]1 [Pemetrexed] (partner 0.2 µM)
Method in brief: as §1

Cell Line | relative viability (Obatoclax + Crizotinib; first compound 0.01 µM) | relative viability (Obatoclax + Crizotinib; first compound 0.03162 µM) | relative viability (Obatoclax + Crizotinib; first compound 0.1 µM) | relative viability (Obatoclax + Crizotinib; first compound 0.3162 µM) | relative viability (Obatoclax + Crizotinib; first compound 1 µM) | relative viability ([1]; first compound 0.08 µM) | relative viability ([1]; first compound 0.253 µM) | relative viability ([1]; first compound 0.8 µM) | relative viability ([1]; first compound 2.53 µM) | relative viability ([1]; first compound 8 µM) | relative viability ([2]; first compound 0.08 µM) | relative viability ([2]; first compound 0.253 µM) | relative viability ([2]; first compound 0.8 µM) | relative viability ([2]; first compound 2.53 µM) | relative viability ([2]; first compound 8 µM) | relative viability (Bortezomib + Pemetrexed; first compound 0.0002 µM) | relative viability (Bortezomib + Pemetrexed; first compound 0.000632 µM) | relative viability (Bortezomib + Pemetrexed; first compound 0.002 µM) | relative viability (Bortezomib + Pemetrexed; first compound 0.006325 µM) | relative viability (Bortezomib + Pemetrexed; first compound 0.02 µM)
LOU-NH91 | 0.768 | 0.628 | 0.703 | 0.874 | 0.759 | 0.713 | 0.719 | 0.707 | 0.482 | 0.308 | 0.767 | 0.842 | 0.742 | 0.699 | 0.507 | 0.396 | 0.446 | 0.361 | 0.281 | 0.284
LU99A | 0.614 | 0.498 | 0.569 | 0.236 | 0.233 | 0.325 | 0.259 | 0.262 | 0.175 | 0.141 | 0.292 | 0.327 | 0.28 | 0.256 | 0.155 | 0.158 | 0.167 | 0.198 | 0.174 | 0.169
LXF-289 | 0.796 | 0.8 | 0.83 | 0.822 | 0.679 | 0.192 | 0.142 | 0.191 | 0.113 | 0.0447 | 0.826 | 0.834 | 0.673 | 0.42 | 0.0972 | 0.884 | 0.884 | 0.962 | 0.442 | 0.0884
NCI-H23 | 0.555 | 0.507 | 0.469 | 0.527 | 0.282 | 0.389 | 0.382 | 0.239 | 0.212 | 0.141 | 0.417 | 0.563 | 0.539 | 0.291 | 0.115 | 0.556 | – | 0.595 | 0.23 | 0.143
NCI-H322M | 0.822 | 0.932 | 0.845 | 1.01 | 0.96 | 0.509 | 0.521 | 0.506 | 0.3 | 0.229 | 0.504 | 0.546 | 0.538 | 0.364 | 0.278 | 0.642 | 0.403 | 0.617 | 0.4 | 0.335
NCI-H358 | 0.46 | 0.57 | 0.592 | 0.374 | 0.352 | 0.103 | 0.103 | 0.0892 | 0.089 | 0.0711 | 0.769 | 0.933 | 0.483 | 0.0714 | 0.0592 | 0.163 | 0.182 | 0.171 | 0.104 | 0.0993
NCI-H441 | 0.676 | 0.742 | 0.724 | 0.604 | 0.549 | 0.642 | 0.592 | 0.599 | 0.287 | 0.189 | 0.607 | 0.501 | 0.589 | 0.226 | 0.179 | 0.248 | 0.244 | 0.253 | 0.104 | 0.118
NCI-H460 | 0.727 | 0.716 | 0.605 | 0.244 | 0.0446 | 0.371 | 0.394 | 0.313 | 0.0338 | 0.0166 | 0.696 | 0.606 | 0.578 | 0.0297 | 0.0153 | 0.0729 | 0.0627 | 0.0658 | 0.0625 | 0.0303
NCI-H520 | 0.781 | 0.777 | 0.774 | 0.628 | 0.461 | 0.432 | 0.464 | 0.381 | 0.307 | 0.176 | 0.289 | 0.286 | 0.214 | 0.165 | 0.128 | 0.511 | 0.785 | 0.3 | 0.17 | 0.139
NCI-H596 | 0.987 | 0.898 | 0.946 | 0.655 | 0.565 | 0.783 | 1.01 | 0.896 | 0.508 | 0.244 | 0.633 | 0.72 | 0.671 | 0.34 | 0.247 | 0.487 | 0.488 | 0.45 | 0.268 | 0.221
NCI-H647 | 0.997 | 1.13 | 0.762 | 0.286 | 0.133 | 0.236 | 0.202 | 0.257 | 0.123 | 0.108 | 0.706 | 0.628 | 0.668 | 0.13 | 0.0671 | 0.17 | 0.199 | 0.134 | 0.0326 | 0.0194
NCI-H661 | 0.851 | – | – | – | 1.03 | 0.321 | 0.344 | 0.339 | 0.382 | 0.394 | 0.774 | – | 0.599 | 0.39 | 0.217 | 0.887 | 0.89 | 0.88 | 0.594 | 0.23
NCI-H838 | 0.848 | 0.959 | 0.827 | 0.77 | 0.777 | 0.296 | 0.287 | 0.271 | 0.211 | 0.119 | 0.346 | 0.413 | 0.385 | 0.208 | 0.103 | 0.252 | 0.231 | 0.264 | 0.161 | 0.161
NCI-H1355 | 1.13 | 0.93 | 1.04 | 1.03 | 0.915 | 0.536 | 0.502 | 0.511 | 0.173 | 0.129 | 0.378 | 0.374 | 0.389 | 0.213 | 0.105 | 1.02 | 0.97 | 1.06 | 0.711 | 0.13
NCI-H1437 | 0.804 | 0.857 | 0.861 | 0.896 | 1.03 | 0.422 | 0.462 | 0.424 | 0.344 | 0.201 | 0.84 | 0.89 | 0.947 | 0.737 | 0.164 | 0.284 | 0.301 | 0.351 | 0.172 | 0.157
NCI-H1650 | 0.892 | 1.01 | 1.05 | 0.699 | 0.297 | 0.384 | 0.384 | 0.373 | 0.187 | 0.169 | 0.645 | 0.782 | 0.624 | 0.154 | 0.0984 | 0.403 | 0.335 | 0.141 | 0.13 | 0.186

Source: the supplement of paper PMC10307832
